# Data: the NIST ThermoML archive (doi:10.1021/je900596d)
# Numbers after ± are expanded uncertainties.
# Settings: 303.36 K, Liquid, Vibrating tube method
smiles,measurement,setting,value
FC(F)=C(F)C(F)(F)F [hexafluoropropene],mass density,858.9 kPa,1288.19 ± 1.3 kg/m3
same,mass density,870 kPa,1288.22 ± 1.3 kg/m3
same,mass density,873.5 kPa,1288.36 ± 1.3 kg/m3
same,mass density,880.9 kPa,1288.43 ± 1.3 kg/m3
same,mass density,885.8 kPa,1288.43 ± 1.3 kg/m3
same,mass density,887.7 kPa,1288.47 ± 1.3 kg/m3
same,mass density,903 kPa,1288.59 ± 1.3 kg/m3
same,mass density,908.2 kPa,1288.61 ± 1.3 kg/m3
same,mass density,911.2 kPa,1288.78 ± 1.3 kg/m3
same,mass density,918.3 kPa,1288.76 ± 1.3 kg/m3
same,mass density,927 kPa,1288.93 ± 1.3 kg/m3
same,mass density,935.5 kPa,1288.99 ± 1.3 kg/m3
same,mass density,940.8 kPa,1288.91 ± 1.3 kg/m3
same,mass density,943.4 kPa,1289.1 ± 1.3 kg/m3
same,mass density,946.1 kPa,1289.23 ± 1.3 kg/m3
same,mass density,954.6 kPa,1289.18 ± 1.3 kg/m3
same,mass density,959.8 kPa,1289.24 ± 1.3 kg/m3
same,mass density,965.5 kPa,1289.39 ± 1.3 kg/m3
same,mass density,974 kPa,1289.46 ± 1.3 kg/m3
same,mass density,983.2 kPa,1289.54 ± 1.3 kg/m3
same,mass density,988.8 kPa,1289.67 ± 1.3 kg/m3
same,mass density,995.6 kPa,1289.74 ± 1.3 kg/m3
same,mass density,1001.4 kPa,1289.81 ± 1.3 kg/m3
same,mass density,1006.1 kPa,1289.98 ± 1.3 kg/m3
same,mass density,1016.7 kPa,1289.99 ± 1.3 kg/m3
same,mass density,1021.3 kPa,1290 ± 1.3 kg/m3
same,mass density,1025.8 kPa,1290.01 ± 1.3 kg/m3
same,mass density,1030.5 kPa,1290.08 ± 1.3 kg/m3
same,mass density,1045.7 kPa,1290.29 ± 1.3 kg/m3
same,mass density,1063.4 kPa,1290.5 ± 1.3 kg/m3
same,mass density,1068.6 kPa,1290.58 ± 1.3 kg/m3
same,mass density,1082.5 kPa,1290.71 ± 1.3 kg/m3
same,mass density,1095.4 kPa,1290.76 ± 1.3 kg/m3
same,mass density,1106.3 kPa,1291.06 ± 1.3 kg/m3
same,mass density,1118.1 kPa,1291.22 ± 1.3 kg/m3
same,mass density,1152.1 kPa,1291.56 ± 1.3 kg/m3
same,mass density,1163 kPa,1291.61 ± 1.3 kg/m3
same,mass density,1174.7 kPa,1291.89 ± 1.3 kg/m3
same,mass density,1188.2 kPa,1292.04 ± 1.3 kg/m3
same,mass density,1203.3 kPa,1292.26 ± 1.3 kg/m3
same,mass density,1216 kPa,1292.23 ± 1.3 kg/m3
same,mass density,1235 kPa,1292.43 ± 1.3 kg/m3
same,mass density,1249 kPa,1292.78 ± 1.3 kg/m3
same,mass density,1261.3 kPa,1292.76 ± 1.3 kg/m3
same,mass density,1289 kPa,1293.23 ± 1.3 kg/m3
same,mass density,1305.6 kPa,1293.27 ± 1.3 kg/m3
same,mass density,1340.2 kPa,1293.72 ± 1.3 kg/m3
same,mass density,1361.8 kPa,1293.94 ± 1.3 kg/m3
same,mass density,1383.4 kPa,1294.19 ± 1.3 kg/m3
same,mass density,1404.6 kPa,1294.41 ± 1.3 kg/m3
same,mass density,1448.9 kPa,1294.92 ± 1.3 kg/m3
same,mass density,1483.7 kPa,1295.38 ± 1.3 kg/m3
same,mass density,1495.8 kPa,1295.69 ± 1.3 kg/m3
same,mass density,1517.4 kPa,1295.82 ± 1.3 kg/m3
same,mass density,1540.3 kPa,1296.17 ± 1.3 kg/m3
same,mass density,1561.5 kPa,1296.23 ± 1.3 kg/m3
same,mass density,1582.1 kPa,1296.56 ± 1.3 kg/m3
same,mass density,1615.7 kPa,1296.92 ± 1.3 kg/m3
same,mass density,1637.2 kPa,1297.09 ± 1.3 kg/m3
same,mass density,1659.1 kPa,1297.43 ± 1.3 kg/m3
same,mass density,1680.6 kPa,1297.48 ± 1.3 kg/m3
same,mass density,1726.5 kPa,1298.26 ± 1.3 kg/m3
same,mass density,1771 kPa,1298.55 ± 1.3 kg/m3
same,mass density,1793.6 kPa,1298.76 ± 1.3 kg/m3
same,mass density,1815.1 kPa,1299.1 ± 1.3 kg/m3
same,mass density,1837.5 kPa,1299.36 ± 1.3 kg/m3
same,mass density,1861.7 kPa,1299.58 ± 1.3 kg/m3
